Results reported in patent US6331548A, “1-cycloalkyl-1,8-naphthyridin-4-one derivative as type IV phosphodiesterase inhibitor” (Suntory Limited, priority 1998, dated 2001).

What was measured:
mice = test: Toxicity: death on intraperitoneal administration to mice for 5 weeks; type: in vivo; conditions: 10 mg/kg per day intraperitoneally for 5 weeks
Source text: Further, the compounds of the present invention are low in toxicity, and these compounds are expected to be high in safety.

[1] = test system: TNF-α production by LPS stimulated macrophages; test: TNF-α production inhibitory activity by LPS stimulated macrophages; type: cell-based; conditions: Macrophage, BALB/c mouse peritoneal macrophages, cultured for 8 hours, ELISA
Description: The following assay was used to evaluate the ability of the compound of the present invention to suppress TNF-α production by LPS stimulated macrophages according to Immunopharmacol. 29, 121-127 (1995).
1) 6 to 10 week old female BALB/c mice were used, 2 ml portions of thioglycolate were intraperitoneally administered, and the abdominal cavities were washed by 10 ml of PBS after 4 days, whereby 1 to 2×10^7 peritoneal cells were obtained per mouse. These were suspended in a hemocyte solution (0.75% ammonium chloride, 17 mM tris-hydrochlorate buffer, pH7.2), centrifuged, then resuspended in an RPMI1640 medium including 10% fetal calf serum and seeded in a 96-well cell culture plate at a density of 1×10^5 cells/50 μl/well. Since these cells adhered strongly to the tissue culture plate and were positive in nonspecific esterase staining, they were used for the test as mouse peritoneal macrophages. Mouse peritoneal macrophages were precultured overnight at 37° C. in […] for the experiment.
2) E. Coli (serum type 055:B5) derived LPS was dissolved in PBS in a concentration of 1 mg/ml, then sterilized by filtration. The test compound was dissolved in DMSO to make a 1000-fold concentration solution of the final concentration of use. 10 μl of the above LPS stock solution (final concentration 10 μg/ml) and 1 μl of the tested substance stock solution were added and mixed in 0.5 ml of RPMI1640 medium containing 10% fetal calf serum. This was added to the above cells at 50 μl/well and cultured for 8 hours. The cultured supernatant was recovered from each well and the TNF-α concentration was measured by the ELISA method (Cytoscreen® Immunoassay Kit Mouse TNF-α, BioSourse International).
The comparative example was the compound described in WO-A-97-04775, Example 1, mentioned above.

[2] = target: type IV phosphodiesterase; test: Type IV phosphodiesterase inhibiting activity; type: biochemical, human; conditions: U937 type IV phosphodiesterase fraction, 0.28 μM cAMP, pH 7.5, 30° C., 30 minutes; read-out: PDEIV-IC50
Method in brief: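 PDE4 fraction from U937 cell lysate, separated on DEAE Sepharose, incubated with compound, 0.4 μCi 3H-cAMP (0.28 μM cAMP) and 5'-nucleotidase in Tris-HCl pH 7.5 with 1 mM MgCl2 for 30 min at 30 °C. Product radioactivity counted after QAE-Sephadex removal of substrate.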

SMILES | death (mice) | IC50 [1] [nM] | IC50 [2] [nM]
COC(=O)N1CC[C@H](n2cc(C(=O)Nc3c(Cl)cncc3Cl)c(=O)c3cccnc32)C1 [Example 11, (S)-N-(3,5-dichloropyridin-4-yl)-1-(1-methoxycarbonylpyrrolidin-3-yl)-1,4-dihydro[1,8]naphthyridin-4-one-3-carboxamide] | no death | 4 | 1.7
COC(=O)N1CC(n2cc(C(=O)Nc3c(Cl)cncc3Cl)c(=O)c3cccnc32)C1 [Example 34, N-(3,5-dichloropyridin-4-yl)-1-(1-methoxycarbonylazetidin-3-yl)-1,4-dihydro[1,8]naphthylidin-4-one-3-carboxamide] | no death | 80 | 24
O=C(Nc1c(Cl)cncc1Cl)c1cn([C@H]2CCN(C(=O)OCc3ccccc3)C2)c2ncccc2c1=O [Example 10, (S)-N-(3,5-dichloropyridin-4-yl)-1-(1-benzyloxycarbonylpyrrolidin-3-yl)-1,4-dihydro[1,8]naphthyridin-4-one-3-carboxamide] | no death | 10 | 1.5
COC(=O)N1CCN(n2cc(C(=O)Nc3c(Cl)cncc3Cl)c(=O)c3cccnc32)CC1 [Example 56, N-(3,5-dichloropyridin-4-yl)-1-(4-methoxycarbonylpiperazin-1-yl)-1,4-dihydro[1,8]naphthylidin-4-one-3-carboxamide] | no death | 15 | 1.6
O=C(Nc1c(Cl)cncc1Cl)c1cn(C2CCN(C(=O)OCc3ccccc3)CC2)c2ncccc2c1=O [Example 25, N-(3,5-dichloropyridin-4-yl)-1-(1-benzyloxycarbonylpiperidin-4-yl)-1,4-dihydro[1,8]naphthylidin-4-one-3-carboxamide] | no death | 0.4 | 0.9
CO[C@H]1CC[C@H](n2cc(C(=O)Nc3c(Cl)cncc3Cl)c(=O)c3cccnc32)CC1 [Example 127, N-(3,5-dichloropyridin-4-yl)-1-(trans-4-methoxycyclohexyl)-1,4-dihydro[1,8]naphthylidin-4-one-3-carboxamide] | no death | 15 | 7.2
COC(=O)N1CCC(n2cc(C(=O)Nc3c(Cl)cncc3Cl)c(=O)c3cccnc32)CC1 [Example 26, N-(3,5-dichloropyridin-4-yl)-1-(1-methoxycarbonylpiperidin-4-yl)-1,4-dihydro[1,8]naphthylidin-4-one-3-carboxamide] | no death | 0.2 | 0.9
O=C(Nc1ccncc1)c1cn(N2CCOCC2)c2ncccc2c1=O [Example 106, N-(4-pyridyl)-1-(1-morpholino)-1,4-dihydro[1,8]naphthylidin-4-one-3-carboxamide] | no death | 90 | 140
